Consider one compound from paper PMC4357015, “Structure, Function and Inhibition of the Phosphoethanolamine Methyltransferases of the Human Malaria Parasites Plasmodium vivax and Plasmodium knowlesi” (Scientific Reports, 2015).

In the assay the test system is PC biosynthesis in pem1Δpem2Δ-pYES2.1-PvPMT. The experiment in a line: phospholipid analysis of yeast pem1Δpem2Δ strain expressing PvPMT. The format is cell-based. Conditions: 200 μM AQ. How it is done: Figure 6 PMT-dependent inhibition of PC biosynthesis by AQ and NSC158011. To assess the effect of AQ on phospholipid metabolism, […] and wild-type strains were grown in minimal medium containing 4% galactose and 2 mM ethanolamine in the absence or presence of 200 μM AQ, lipids were extracted and separated by TLC (A). Each lipid class was scrapped off the TLC plate and quantified by measuring phosphorus (B). The effect of NSC158011 on phospholipid biosynthesis was determined by [33P] orthophosphoric acid labeling as described in Material and Methods. Lipids were separated by TLC (C) and quantified by liquid scintillation spectrometry (D). For all assays, data were used to calculate the PC/PI + PA ratio. The data are represented as the mean ± S.D. of at least two independent experiments.
BY4741-pYes2.1 (wild-type) strains and the pem1Δpem2Δ strains harboring pYES2.1 vector, pYES2.1-PkPMT, pYES2.1-PvPMT or pYES2.1-PfPMT were pre-grown to mid-log phase at 30°C in SG-URA medium supplemented with Etn (2 mM) and Cho (2 mM). […] Each lipid class was excised from the plate and quantified by measuring phosphorus. […] After the growth, lipids were extracted and analyzed as described above. […] The resolved radioactive lipids were visualized by Phosphorimager (GE Typhoon) and quantified by liquid scintillation spectrometry as described.

Regarding `CCN(CC)Cc1cc(Nc2ccnc3cc(Cl)ccc23)ccc1O` [AQ, amodiaquine], the “effect on the synthesis of PE” value is on record as “little to no effect”.
